Assay results from ChEMBL document CHEMBL6078622, “Enhancing outer membrane permeability of tetracycline antibiotics in P. aeruginosa using TOB-CIP conjugates” (RSC Med Chem, 2024).
The source made the active and inactive calls. No cut-off for these calls is given here.

Tests used:
[1] = test system: Pseudomonas aeruginosa; assay: Antibacterial activity against Pseudomonas aeruginosa PA100036 assessed as inhibition of visible bacterial growth by CLSI based broth-microdilution method; assay type: functional
[2] = test system: Pseudomonas aeruginosa; assay: Antibacterial activity against Pseudomonas aeruginosa PA095 assessed as eravacycline MIC by CLSI based broth-microdilution method; assay type: functional
[3] = test system: Pseudomonas aeruginosa; assay: Synergistic antibacterial activity against Pseudomonas aeruginosa PA200 assessed as fold change in doxycycline MIC by CLSI based broth-microdilution method relative to doxycycline alone; assay type: functional
[4] = test system: Pseudomonas aeruginosa; assay: Synergistic antibacterial activity against Pseudomonas aeruginosa PA101243 in presence of doxycycline by checkerboard assay; assay type: functional
[5] = test system: Pseudomonas aeruginosa; assay: Synergistic antibacterial activity against Pseudomonas aeruginosa PA200 in presence of tigecycline by checkerboard assay; assay type: functional
[6] = test system: Pseudomonas aeruginosa; assay: Antibacterial activity against Pseudomonas aeruginosa PAO1 assessed as inhibition of bacterial growth by measuring fold change in MIC in presence of 5 % fetal bovine serum by CLSI protocol based assay; assay type: functional
[7] = test system: Pseudomonas aeruginosa; assay: Synergistic antibacterial activity against Pseudomonas aeruginosa PA262 in presence of minocycline by checkerboard assay; assay type: functional
[8] = test system: Pseudomonas aeruginosa; assay: Antibacterial activity against Pseudomonas aeruginosa PA200 assessed as inhibition of visible bacterial growth by CLSI based broth-microdilution method; assay type: functional
[9] = test system: Pseudomonas aeruginosa; assay: Synergistic antibacterial activity against Pseudomonas aeruginosa PA262 assessed as fractional inhibitory concentration index in presence of eravacycline by checkerboard assay; assay type: functional
[10] = test system: Pseudomonas aeruginosa; assay: Antibacterial activity against Pseudomonas aeruginosa PA100036 assessed as tigecycline MIC by CLSI based broth-microdilution method; assay type: functional
[11] = test system: Pseudomonas aeruginosa; assay: Antibacterial activity against Pseudomonas aeruginosa PAO1 assessed as inhibition of bacterial growth by measuring fold change in MIC in presence of 25 % fetal bovine serum by CLSI protocol based assay; assay type: functional
[12] = test system: Pseudomonas aeruginosa; assay: Synergistic antibacterial activity against Pseudomonas aeruginosa PA095 assessed as fractional inhibitory concentration index in presence of minocycline by checkerboard assay; assay type: functional
[13] = test system: Pseudomonas aeruginosa; assay: Synergistic antibacterial activity against Pseudomonas aeruginosa PA101243 assessed as fold change in tigecycline MIC by CLSI based broth-microdilution method relative to tigecycline alone; assay type: functional
[14] = test system: Pseudomonas aeruginosa; assay: Antibacterial activity against Pseudomonas aeruginosa PA114228 assessed as inhibition of visible bacterial growth by CLSI based broth-microdilution method; assay type: functional
[15] = test system: Pseudomonas aeruginosa; assay: Synergistic antibacterial activity against Pseudomonas aeruginosa PAO1 assessed as fold change in eravacycline MIC by checkerboard analysis relative to eravacycline alone; assay type: functional
[16] = test system: Pseudomonas aeruginosa; assay: Synergistic antibacterial activity against Pseudomonas aeruginosa PA101243 assessed as fractional inhibitory concentration index in presence of doxycycline by checkerboard assay; assay type: functional
[17] = test system: Pseudomonas aeruginosa; assay: Antibacterial activity against Pseudomonas aeruginosa PA259 assessed as increase in bacterial load in presence of eravacycline by time kill assay; assay type: functional, organism-based
[18] = test system: Pseudomonas aeruginosa; assay: Antibacterial activity against Pseudomonas aeruginosa PA264 assessed as increase in bacterial load incubated for 2 hrs in presence of eravacycline by time kill assay; assay type: functional, organism-based
[19] = test system: Pseudomonas aeruginosa; assay: Synergistic antibacterial activity against Pseudomonas aeruginosa PA264 assessed as fold change in minocycline MIC by CLSI based broth-microdilution method relative to minocycline alone; assay type: functional
[20] = test system: Pseudomonas aeruginosa; assay: Antibacterial activity against Pseudomonas aeruginosa PA095 assessed as minocycline MIC by CLSI based broth-microdilution method; assay type: functional
[21] = test system: Pseudomonas aeruginosa; assay: Synergistic antibacterial activity against Pseudomonas aeruginosa PA114228 assessed as fractional inhibitory concentration index in presence of tigecycline by checkerboard assay; assay type: functional
[22] = test system: Pseudomonas aeruginosa; assay: Synergistic antibacterial activity against Pseudomonas aeruginosa PA259 assessed as fractional inhibitory concentration index in presence of doxycycline by checkerboard assay; assay type: functional
[23] = test system: Pseudomonas aeruginosa; assay: Synergistic antibacterial activity against Pseudomonas aeruginosa PA259 assessed as fold change in doxycycline MIC by CLSI based broth-microdilution method relative to doxycycline alone; assay type: functional
[24] = test system: Pseudomonas aeruginosa; assay: Synergistic antibacterial activity against Pseudomonas aeruginosa PA259 assessed as fold change in tigecycline MIC by CLSI based broth-microdilution method relative to tigecycline alone; assay type: functional
[25] = test system: Pseudomonas aeruginosa; assay: Antibacterial activity against Pseudomonas aeruginosa PA095 assessed as tigecycline MIC by CLSI based broth-microdilution method; assay type: functional
[26] = test system: Pseudomonas aeruginosa; assay: Synergistic antibacterial activity against Pseudomonas aeruginosa PA259 assessed as fractional inhibitory concentration index in presence of minocycline by checkerboard assay; assay type: functional
[27] = test system: Pseudomonas aeruginosa; assay: Synergistic antibacterial activity against Pseudomonas aeruginosa PAO1 assessed as fold change in minocycline MIC by checkerboard analysis relative to minocycline alone; assay type: functional
[28] = test system: Pseudomonas aeruginosa; assay: Synergistic antibacterial activity against Pseudomonas aeruginosa PA259 in presence of tigecycline by checkerboard assay; assay type: functional
[29] = test system: Pseudomonas aeruginosa; assay: Antibacterial activity against Pseudomonas aeruginosa PA259 assessed as reduction in bacterial load by time kill assay; assay type: functional, organism-based
[30] = test system: Pseudomonas aeruginosa; assay: Synergistic antibacterial activity against Pseudomonas aeruginosa PA259 assessed as fold change in eravacycline MIC by CLSI based broth-microdilution method relative to eravacycline alone; assay type: functional
[31] = test system: Pseudomonas aeruginosa; assay: Synergistic antibacterial activity against Pseudomonas aeruginosa PA200 assessed as fractional inhibitory concentration index in presence of eravacycline by checkerboard assay; assay type: functional
[32] = test system: Pseudomonas aeruginosa; assay: Synergistic antibacterial activity against Pseudomonas aeruginosa PA100036 assessed as fractional inhibitory concentration index in presence of eravacycline by checkerboard assay; assay type: functional
[33] = test system: Pseudomonas aeruginosa; assay: Synergistic antibacterial activity against Pseudomonas aeruginosa PA264 assessed as fractional inhibitory concentration index in presence of tigecycline by checkerboard assay; assay type: functional
[34] = test system: Pseudomonas aeruginosa; assay: Synergistic antibacterial activity against Pseudomonas aeruginosa PA101243 assessed as fractional inhibitory concentration index in presence of eravacycline by checkerboard assay; assay type: functional
[35] = test system: Pseudomonas aeruginosa; assay: Synergistic antibacterial activity against Pseudomonas aeruginosa PA095 assessed as fold change in doxycycline MIC by CLSI based broth-microdilution method relative to doxycycline alone; assay type: functional
[36] = test system: Pseudomonas aeruginosa; assay: Synergistic antibacterial activity against Pseudomonas aeruginosa PA101243 in presence of tigecycline by checkerboard assay; assay type: functional
[37] = test system: HepG2; assay: Cytotoxicity against human HepG2 cells assessed as inhibition of cell vitality at 162 uM; assay type: functional; set-up: scale not given: the % may be the effect or the level left
[38] = test system: Pseudomonas aeruginosa; assay: Antibacterial activity against Pseudomonas aeruginosa PA101243 assessed as inhibition of visible bacterial growth by CLSI based broth-microdilution method; assay type: functional
[39] = test system: Pseudomonas aeruginosa; assay: Synergistic antibacterial activity against Pseudomonas aeruginosa PA114228 in presence of minocycline by checkerboard assay; assay type: functional
[40] = test system: Pseudomonas aeruginosa; assay: Synergistic antibacterial activity against Pseudomonas aeruginosa PA264 in presence of tigecycline by checkerboard assay; assay type: functional
[41] = test system: Pseudomonas aeruginosa; assay: Synergistic antibacterial activity against Pseudomonas aeruginosa PA200 assessed as fold change in tigecycline MIC by CLSI based broth-microdilution method relative to tigecycline alone; assay type: functional
[42] = test system: Pseudomonas aeruginosa; assay: Antibacterial activity against Pseudomonas aeruginosa PA200 assessed as tigecycline MIC by CLSI based broth-microdilution method; assay type: functional
[43] = test system: Pseudomonas aeruginosa; assay: Synergistic antibacterial activity against Pseudomonas aeruginosa PA114228 assessed as fold change in tigecycline MIC by CLSI based broth-microdilution method relative to tigecycline alone; assay type: functional
[44] = test system: Pseudomonas aeruginosa; assay: Antibacterial activity against Pseudomonas aeruginosa PA259 assessed as inhibition of visible bacterial growth by CLSI based broth-microdilution method; assay type: functional
[45] = test system: Pseudomonas aeruginosa; assay: Synergistic antibacterial activity against Pseudomonas aeruginosa PA100036 in presence of minocycline by checkerboard assay; assay type: functional
[46] = test system: Pseudomonas aeruginosa; assay: Synergistic antibacterial activity against Pseudomonas aeruginosa PA095 in presence of doxycycline by checkerboard assay; assay type: functional

MIC [1]: > 128 µg/mL
MIC [2]: 1 µg/mL
MIC [4]: 8 µg/mL
MIC [5]: 8 µg/mL
MIC [7]: 8 µg/mL
MIC [8]: 32 µg/mL
MIC [10]: 0.5 µg/mL
MIC [14]: > 128 µg/mL
MIC [20]: 1 µg/mL
MIC [25]: 2 µg/mL
MIC [28]: 8 µg/mL
MIC [36]: 8 µg/mL
MIC [38]: > 128 µg/mL
MIC [39]: 8 µg/mL
MIC [40]: 8 µg/mL
MIC [42]: 0.25 µg/mL
MIC [44]: > 128 µg/mL
MIC [45]: 8 µg/mL
MIC [46]: 2 µg/mL
Compound: Cl.Cl.Cl.Cl.Cl.Cl.NC[C@H]1O[C@H](O[C@H]2[C@H](OCCCCCCCCCCCCNC(=O)c3cn(C4CC4)c4cc(N5CCNCC5)c(F)cc4c3=O)[C@@H](O[C@H]3O[C@H](CO)[C@@H](O)[C@H](N)[C@H]3O)[C@H](N)C[C@@H]2N)[C@H](N)C[C@@H]1O
fold change (FC) [3]: 64
fold change (FC) [6]: >128
fractional inhibitory concentration index (FICI) [9]: 0.062
fold change (FC) [11]: 128
fractional inhibitory concentration index (FICI) [12]: 0.5
fold change (FC) [13]: 4
fold change (FC) [15]: 64
fractional inhibitory concentration index (FICI) [16]: 0.25
Activity [17]: Active
Activity [18]: Active
fold change (FC) [19]: 128
fractional inhibitory concentration index (FICI) [21]: 0.25
fractional inhibitory concentration index (FICI) [22]: 0.008
fold change (FC) [23]: 128
fold change (FC) [24]: 128
fractional inhibitory concentration index (FICI) [26]: 0.002
fold change (FC) [27]: 64
AC30 [29]: Active
fold change (FC) [30]: 512
fractional inhibitory concentration index (FICI) [31]: 0.156
fractional inhibitory concentration index (FICI) [32]: 0.008
fractional inhibitory concentration index (FICI) [33]: 0.004
fractional inhibitory concentration index (FICI) [34]: 0.625
fold change (FC) [35]: 16
Activity [37]: 40%
fold change (FC) [41]: 16
fold change (FC) [43]: 128
